For experiment [1], the target named is T1, Dystroglycan (Cricetulus griseus) (UniProt G3H8F4).
T1 sequence (whole entry): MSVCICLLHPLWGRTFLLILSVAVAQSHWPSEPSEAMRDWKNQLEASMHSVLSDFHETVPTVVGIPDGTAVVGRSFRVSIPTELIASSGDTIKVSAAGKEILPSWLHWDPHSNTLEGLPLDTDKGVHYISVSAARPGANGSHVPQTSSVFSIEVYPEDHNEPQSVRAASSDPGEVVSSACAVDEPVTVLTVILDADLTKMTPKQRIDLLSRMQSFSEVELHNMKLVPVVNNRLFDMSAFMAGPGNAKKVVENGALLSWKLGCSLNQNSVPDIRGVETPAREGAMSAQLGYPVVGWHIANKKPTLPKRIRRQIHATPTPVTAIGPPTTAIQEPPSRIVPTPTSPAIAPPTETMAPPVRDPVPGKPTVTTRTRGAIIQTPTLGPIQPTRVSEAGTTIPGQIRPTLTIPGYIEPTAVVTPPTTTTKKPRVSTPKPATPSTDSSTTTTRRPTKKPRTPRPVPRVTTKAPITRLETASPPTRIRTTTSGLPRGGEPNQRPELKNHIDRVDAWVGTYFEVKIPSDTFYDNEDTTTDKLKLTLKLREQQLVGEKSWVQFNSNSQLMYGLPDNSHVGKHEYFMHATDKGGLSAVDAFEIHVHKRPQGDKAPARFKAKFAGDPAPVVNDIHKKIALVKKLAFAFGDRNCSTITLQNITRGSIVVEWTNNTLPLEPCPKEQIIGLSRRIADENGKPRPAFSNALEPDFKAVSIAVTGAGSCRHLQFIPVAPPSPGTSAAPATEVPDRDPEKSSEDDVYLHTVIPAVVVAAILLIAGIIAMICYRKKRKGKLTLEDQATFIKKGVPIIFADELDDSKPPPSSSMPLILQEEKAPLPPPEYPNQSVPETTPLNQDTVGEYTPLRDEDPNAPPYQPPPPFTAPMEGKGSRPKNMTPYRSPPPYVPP
The experiment can be described thus: Increase of functional O-mannosylation of alpha-dystroglycan in Chinese hamster pro5 cells expressing LARGE after 48 hrs by alpha-screen assay. The experiment is classed as cell-based.

Experiment [2] addresses T2, Dystroglycan 1 (Mus musculus) (UniProt Q62165).
T2 sequence (whole entry): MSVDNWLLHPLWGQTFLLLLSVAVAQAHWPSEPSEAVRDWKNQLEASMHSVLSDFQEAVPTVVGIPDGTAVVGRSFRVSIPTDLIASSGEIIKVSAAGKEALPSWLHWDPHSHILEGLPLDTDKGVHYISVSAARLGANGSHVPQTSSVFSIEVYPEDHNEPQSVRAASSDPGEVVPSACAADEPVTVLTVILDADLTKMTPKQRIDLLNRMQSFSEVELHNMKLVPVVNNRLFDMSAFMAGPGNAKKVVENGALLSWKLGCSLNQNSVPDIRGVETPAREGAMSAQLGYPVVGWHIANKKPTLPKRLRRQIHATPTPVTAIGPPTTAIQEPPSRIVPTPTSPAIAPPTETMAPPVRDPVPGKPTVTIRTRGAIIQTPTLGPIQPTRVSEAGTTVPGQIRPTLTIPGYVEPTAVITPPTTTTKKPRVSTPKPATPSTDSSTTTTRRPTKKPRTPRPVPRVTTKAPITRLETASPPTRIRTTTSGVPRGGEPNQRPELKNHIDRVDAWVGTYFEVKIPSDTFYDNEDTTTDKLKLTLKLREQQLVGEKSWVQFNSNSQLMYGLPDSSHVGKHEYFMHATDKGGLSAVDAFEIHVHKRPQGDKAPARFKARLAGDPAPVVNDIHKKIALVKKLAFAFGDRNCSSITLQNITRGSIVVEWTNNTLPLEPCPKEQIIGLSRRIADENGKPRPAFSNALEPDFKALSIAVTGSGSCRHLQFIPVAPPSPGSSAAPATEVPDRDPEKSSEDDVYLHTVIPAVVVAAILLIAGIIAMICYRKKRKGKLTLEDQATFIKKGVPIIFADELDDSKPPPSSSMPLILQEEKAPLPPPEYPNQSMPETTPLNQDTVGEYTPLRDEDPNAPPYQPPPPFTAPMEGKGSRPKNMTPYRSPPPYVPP
As to the kind of experiment: Increase of functional O-mannosylation of alpha-dystroglycan in mouse C2C12 cells expressing LARGE at 10 uM after 48 hrs by alpha-screen assay relative to control. The experiment is classed as cell-based.

Some results are limits rather than exact numbers.

The compound `CCC(c1nnnn1Cc1cccs1)N1CCN(c2nc3ccc(NC(=O)c4ccccc4C)cc3s2)CC1` (configuration not stated) returned an EC1.5 in experiment [1] above 64 µM.

`CCC(c1nnnn1Cc1cccs1)N1CCN(c2nc3ccc(-c4ccccc4)cc3s2)CC1` (configuration not stated) registered an EC1.5 in experiment [1] above 64 µM.

In turn, `CCC(c1ccc(-c2nc3ccccc3s2)cc1)c1nnnn1Cc1cccs1` (configuration not stated) yielded an EC1.5 in experiment [1] of 49 µM.

In experiment [1], `CCC(c1nnnn1Cc1cccs1)N1CCN(c2nc3cccc(C(F)(F)F)c3s2)CC1` (configuration not stated) showed an EC1.5 of 25 µM.

For the compound `CCC(c1nnnn1Cc1cccs1)N1CCN(c2nc3ccc(C)cc3s2)CC1` (configuration not stated), in experiment [1], the EC1.5 was found to be 15 µM.

As to `CCC(c1nnnn1Cc1cccs1)N1CCN(C2=Nc3ccccc3C2)CC1` (configuration not stated), in experiment [1], the EC1.5 was determined as 28 µM.

In experiment [1], `CCC(NCCNc1nc2cccc(F)c2s1)c1nnnn1Cc1cccs1` (configuration not stated) showed an EC1.5 above 64 µM.

For `CCC(c1nnnn1Cc1cccs1)N1CCN(c2nc3ccc(NC(=O)CCCC[C@@H]4SC[C@@H]5NC(=O)N[C@@H]54)cc3s2)CC1` (some centres not stated), the EC1.5 in experiment [1] was determined as 4.3 µM.

Take `COc1ccc(Cn2nnnc2CN2CCN(c3nc4ccccc4s3)CC2)cc1`: the EC1.5 in experiment [1] is above 64 µM.

In turn, `CCC(c1nnnn1Cc1ccco1)N1CCN(c2nc3ccccc3s2)CC1` (configuration not stated) gave an EC1.5 in experiment [1] of 9.5 µM.

In turn, `c1ccc(C(c2nnnn2Cc2cccs2)N2CCN(c3nc4ccccc4s3)CC2)cc1` (configuration not stated) returned an EC1.5 in experiment [1] above 64 µM.

Consider `CCC(c1nnnn1Cc1cccs1)N1CCN(c2nc3cccc(C(=O)OC)c3s2)CC1` (configuration not stated), for which the EC1.5 in experiment [1] was 14 µM.

Consider `CC(c1nnnn1Cc1cccs1)N1CCN(c2nc3ccccc3s2)CC1` (configuration not stated), for which, in experiment [1], the EC1.5 amounted to 7.2 µM.

Compound `CC(C)CC(c1nnnn1Cc1cccs1)N1CCN(c2nc3ccccc3s2)CC1` (configuration not stated) came in with an EC1.5 in experiment [1] above 64 µM.

As for `CCC(c1nnnn1Cc1cccs1)N1CCN(c2nc3ccc(NC(=O)c4ccccc4Cl)cc3s2)CC1` (configuration not stated), in experiment [1], the EC1.5 was above 64 µM.

For `CCC(c1nnnn1Cc1cccs1)N1CCN(c2nc3cccc(O)c3s2)CC1` (configuration not stated), the EC1.5 in experiment [1] was 21 µM.

The compound `CCC(c1nnnn1Cc1cccs1)N1CCN(c2nc3cccc(C(=O)O)c3s2)CC1` (configuration not stated) returned an EC1.5 in experiment [1] of 22 µM.

As to `CCC(c1nnnn1Cc1cccs1)N1CCN(c2nc3ccccc3[nH]2)CC1` (configuration not stated), the EC1.5 in experiment [1] turned out to be 17 µM.

As for `CCC(c1nnnn1Cc1cccs1)N1CCC(c2nc3ccccc3s2)CC1` (configuration not stated), the EC1.5 in experiment [1] is 9.6 µM.

For `CCC(c1nnnn1Cc1cccs1)N1CCN(c2nc3ccc(OC)cc3s2)CC1` (configuration not stated), the EC1.5 in experiment [1] stood at 7.1 µM.

In turn, `CCC(c1nnnn1Cc1cccs1)N1CCN(c2nc3ccc(Cl)cc3s2)CC1` (configuration not stated) came in with an EC1.5 in experiment [1] of 13 µM.

For the compound `CCC(c1nnnn1Cc1cccs1)N1CCN(c2nc3ccc(C(=O)OC)cc3s2)CC1` (configuration not stated), in experiment [1], the EC1.5 was found to be 28 µM.

Consider `CCC(c1nnnn1Cc1cccs1)N1CCN(c2nc3cc([N+](=O)[O-])cc(F)c3s2)CC1` (configuration not stated), for which the EC1.5 in experiment [1] turned out to be 25 µM.

Regarding `CCC(c1nnnn1Cc1cccs1)N1CCN(c2nc3ccccc3s2)CC1` (configuration not stated), the Activity in experiment [2] is 56%. Also, the EC1.5 in experiment [1] amounted to 4.6 µM.

In the case of `CC(C)n1nnnc1CN1CCN(c2nc3ccccc3s2)CC1`, the EC1.5 in experiment [1] is above 64 µM.

The compound `c1ccc2sc(N3CCN(Cc4nnnn4C4CCCC4)CC3)nc2c1` showed an EC1.5 in experiment [1] above 64 µM.

Take `CCC(c1nnnn1Cc1ccccc1)N1CCN(c2nc3ccccc3s2)CC1` (configuration not stated): the EC1.5 in experiment [1] is above 64 µM.

`CCC(c1nnnn1Cc1nccs1)N1CCN(c2nc3cccc(F)c3s2)CC1` (configuration not stated) displayed an EC1.5 in experiment [1] of 43 µM.

The compound `CCC(c1nnnn1CCc1cccs1)N1CCN(c2nc3cccc(F)c3s2)CC1` (configuration not stated) yielded an EC1.5 in experiment [1] of 64 µM.

As for `CCC(c1nnnn1Cc1cccs1)N1CCN(c2nc3cc(N)ccc3s2)CC1` (configuration not stated), the EC1.5 in experiment [1] worked out at 3.4 µM.

Compound `CCC(c1nnnn1Cc1cccs1)N1CCN(c2nc3c(F)cccc3s2)CC1` (configuration not stated) returned an EC1.5 in experiment [1] of 4.9 µM.

`CCC(c1nnnn1Cc1cccs1)N1CCN(c2nc3ccc([N+](=O)[O-])cc3s2)CC1` (configuration not stated) came in with an EC1.5 in experiment [1] of 32 µM.

As to `c1csc(Cn2nnnc2CN2CCN(c3nc4ccccc4s3)CC2)c1`, the Activity in experiment [2] stood at 37%. Also, the EC1.5 in experiment [1] came out at 8.7 µM.

Regarding `CCC(c1nnnn1Cc1cccs1)N1CCN(c2nc3ccc(N)cc3s2)CC1` (configuration not stated), the EC1.5 in experiment [1] was determined as 11 µM.

In experiment [1], `CCC(c1cnnn1Cc1cccs1)N1CCN(c2nc3ccccc3s2)CC1` (configuration not stated) gave an EC1.5 of 48 µM.

Regarding `CCC(c1nnnn1Cc1cccs1)N1CCN(c2nc3ccccc3o2)CC1` (configuration not stated), in experiment [1], the EC1.5 was determined as 9.5 µM.

In turn, `CCC(c1nnnn1-c1ccccc1)N1CCN(c2nc3ccccc3s2)CC1` (configuration not stated) gave an EC1.5 in experiment [1] above 64 µM.

As for `CCCC(c1nnnn1Cc1cccs1)N1CCN(c2nc3ccccc3s2)CC1` (configuration not stated), the EC1.5 in experiment [1] was 34 µM.

On to `CCC(c1nnnn1Cc1cccs1)N1CCN(c2nc3ccc(F)cc3s2)CC1` (configuration not stated), for which the EC1.5 in experiment [1] was 21 µM.

`CCC(c1nnnn1Cc1cccs1)N1CCN(c2nc3cc(F)ccc3s2)CC1` (configuration not stated) registered an EC1.5 in experiment [1] above 64 µM.

With `CCC(c1nnnn1Cc1cccs1)N1CCN(c2nc3ccc(C(=O)O)cc3s2)CC1` (configuration not stated), in experiment [1], the EC1.5 worked out at 19 µM.

In experiment [1], `CCC(c1nnnn1Cc1cccs1)N1CCN(c2nc3c(N)cccc3s2)CC1` (configuration not stated) displayed an EC1.5 of 16 µM.

In experiment [1], `CCC(c1nnnn1Cc1cccs1)N1CCN(c2nc3c(F)cc(F)cc3s2)CC1` (configuration not stated) registered an EC1.5 of 17 µM.

`Fc1ccc(Cn2nnnc2CN2CCN(c3nc4ccccc4s3)CC2)cc1` displayed an EC1.5 in experiment [1] above 64 µM.

Take `CCC(c1nnnn1Cc1cccs1)N1CCN(Cc2nc3ccccc3s2)CC1` (configuration not stated): the EC1.5 in experiment [1] was 64 µM.

As to `O=C(c1nnnn1Cc1cccs1)N1CCN(c2nc3ccccc3s2)CC1`, the EC1.5 in experiment [1] is above 64 µM.

With `CCC(c1nnnn1Cc1cccs1)N1CCN(c2nc3cc([N+](=O)[O-])ccc3s2)CC1` (configuration not stated), the EC1.5 in experiment [1] was above 64 µM.

`CCC(c1nnnn1Cc1cccs1)N1CCN(c2nc3cc(OC)c(OC)c(OC)c3s2)CC1` (configuration not stated) yielded an EC1.5 in experiment [1] of 6.5 µM.

In turn, `CCC(c1nnnn1Cc1cccs1)N1CCN(c2nc3cccc(Br)c3s2)CC1` (configuration not stated) showed an EC1.5 in experiment [1] of 22 µM.

In experiment [1], `CCC(c1nnnn1Cc1cccs1)N1CCN(c2nc3cccc(F)c3s2)CC1` (configuration not stated) yielded an EC1.5 of 2.6 µM.

The values above are taken from ChEMBL document CHEMBL3739371, “Small molecules enhance functional O-mannosylation of Alpha-dystroglycan” (Bioorg Med Chem, 2015).
